Measured values taken from patent US5326882A, “Chemiluminescent 3-(substituted Adamant-2'-Ylidene) 1,2-dioxetanes” (Tropix, Inc., priority 1992, dated 1994).

Columns and labels:
alkaline phosphatase [1] = biological target: T1, alkaline phosphatase (Bos taurus, UniProt P19111); test: Half-time to plateau at low alkaline phosphatase concentration (Example XLI); format: biochemical; conditions: 0.4 mM dioxetane at pH 10.0; 31.5° C.; 2.53 × 10^-13 M alkaline phosphatase
alkaline phosphatase [2] = biological target: T1, alkaline phosphatase; test: Chemiluminescent signal-to-noise levels with enhancers (Example XXIV); format: biochemical
Experimental: The chemiluminescent signal to noise levels were obtained with 2.83×10^-13 M alkaline phosphatase and various R-substituted adamantyl 1,2-dioxetane phosphates in the presence of several enhancers. All measurements were performed in a Berthold LB952T luminometer at room temperature. First, the background chemiluminescence levels (signal in the absence of the enzyme) of each sample (in triplicate) were measured. Each sample consisted of 0.2 μmoles of dioxetane in 0.45 ml of 0.1 M diethanolamine, 1 mM MgCl2, pH 10.0, without or with 1 mg/ml of the indicated enhancer. Tubes were inserted into the luminometer and the luminescence intensity was measured. Next, the tubes were removed from the luminometer and alkaline phosphatase (50 μl containing 1.415×10^-16 moles) was added to each tube, and the luminescence intensity was measured at 5 and 20 minutes after substrate addition. The final concentration of dioxetane in each tube was 0.4 mM.
All enhancers used at 1 mg/ml in 0.1 M DEA, pH 10. Alkaline phosphatase concentration=2.83×10^-13 M. Measurements performed in a Berthold LB952T Luminometer.

alkaline phosphatase [3] = biological target: T1, alkaline phosphatase; test: Detection limits for alkaline phosphatase, Berthold LB952T (Example XXII); format: biochemical; conditions: twice background
Experimental: (§1) The detection means for alkaline phosphatase with different chemiluminescent 1,2-dioxetane substrates were determined as follows: Duplicates of serial dilutions (1 to 3) of alkaline phosphates were incubated at room temperature with 0.4 mM dioxetane in 0.1 M diethanolamine, 1 mM MgCl2, pH 10.0, containing 1 mg/ml of either of the polymeric enhancers Enhancer 1 or Enhancer 2, in […].
(§2) Following either a 5 or a 20 minute incubation with a substrate, the chemiluminescence intensity was measured as a 5 second integrated Relative Light Units (RLU) and plotted as in FIG. 10. […] The alkaline phosphatase concentrations at twice background were used as the detection limits in Table 5.

alkaline phosphatase [4] = biological target: T1, alkaline phosphatase; test: Alkaline phosphatase detection limits, Wilj microtiter plate luminometer (Example XXVI); format: biochemical; conditions: 23 MINUTE INCUBATION
[5] = biological target: T2, alkaline phosphatase (calf intestine; Biozyme) (Bos taurus, UniProt P19111); test: Total dephosphorylation, chemiluminescence decay (Example XIII); format: biochemical; conditions: 30° C., carbonate/bicarbonate buffer
T2 construct: purchased Biozyme; host or cells: calf intestine
Experimental: A comparison of the total luminescence emission from AMPPD and from the corresponding 1,2-dioxetanes whose adamant-2'-ylidene groups are monosubstituted with hydroxy (A and B isomers), chloro and bromo groups was made by carrying out total dephosphorylation experiments on each of these compounds.
An aqueous solution of the 1,2-dioxetane (4.0 mm) in 0.05M sodium carbonate/sodium bicarbonate containing 1 mM magnesium chloride was prepared and then equilibrated at 30° C. Ten μl of a 7.64×10M aqueous solution of alkaline phosphatase (calf intestine; Biozyme) was then added, and the chemiluminescence from the resulting solution was recorded using a Turner Model 20E luminometer (Turner Instruments; Sunnyvale, Calif.).
The rates of chemiluminescence decay for each of the five compounds in question, expressed in relative light units (RLU's) per minute, are given in the following table.

[6] = biological target: T3, alkaline phosphatase-labeled DNA probe (Bos taurus, UniProt P19111); test: Alkaline phosphatase-labeled DNA probe detection in membrane with and without BDMQ blocking step (Example XV); conditions: for Detection limit (in picograms DNA) 5. min. exp.: five minute exposure 40 minutes after dioxetane addition; for Detection limit (in picograms DNA) 1 min. exp.: one minute exposure 77 minutes after dioxetane addition
T3 construct: purchased Tropix, Inc
Experimental: pBr 322 plasmid (4700 bp) was subjected to a nick translation process using a Trans-Light kit (Tropix, Inc., Bedford, Mass.) to generate a mixture of biotinylated single stranded polynucleotides of 200-2000 bps in length.
This mixture was dotted onto a dry BIODYNE A membrane as five parallel columns of dots of the following concentrations:
The membrane was subjected to ultraviolet irradiation (UVP Mineral Light; UVP, San Gabriel, Calif.) for 3 minutes to fix the DNA to the surface of the membrane, then air dried. Next, the membrane was blocked in 0.2% casein/0.1% Tween 20 detergent in PBS for 1 hour, following which 1/5000 diluted avidin-alkaline phosphatase conjugate (Tropix, Inc.) in 0.2% casein in PBS was added. The membrane was then incubated for 30 minutes, washed three times (for 5 minutes each time) in 0.2% casein/0.1% Tween 20 detergent in PBS and washed once for five minutes in aqueous 0.1M diethanolamine containing 1 mm magnesium chloride and 0.02% sodium azide, pH 10.0 (substrate buffer).
Next, the five columns of rows of dots 1-5 were individually cut from the membrane ("strips 1-5"), as were the five columns of rows of dots 6-10 ("strips 6-10"). Strips 1-5 were washed with substrate buffer for 30 minutes. Strips 6-10 were blocked in 0.1% BDMQ in substrate buffer for 30 minutes. Both sets of strips were then incubated for 5 minutes in substrate buffer, then individually incubated for five minutes in aqueous solutions (0.25 mM) of 1,2-dioxetanes as indicated below:
All strips were then placed in camera luminometers and exposed on Polaroid Type 612 instant black and white film.

alkaline phosphatase [7] = biological target: T1, alkaline phosphatase; test: Alkaline phosphatase detection limits, LabSystems Luminoskan (Example XXV); format: biochemical
Experimental: as §1, §2
The luminometer used in this example was LabSystems Luminoskan microtiter plate reader.

[8] = enhancer NONE, 5 min, alkaline phosphatase 2.83×10^-13 M

T1 sequence (P19111 20-506 limits assumed): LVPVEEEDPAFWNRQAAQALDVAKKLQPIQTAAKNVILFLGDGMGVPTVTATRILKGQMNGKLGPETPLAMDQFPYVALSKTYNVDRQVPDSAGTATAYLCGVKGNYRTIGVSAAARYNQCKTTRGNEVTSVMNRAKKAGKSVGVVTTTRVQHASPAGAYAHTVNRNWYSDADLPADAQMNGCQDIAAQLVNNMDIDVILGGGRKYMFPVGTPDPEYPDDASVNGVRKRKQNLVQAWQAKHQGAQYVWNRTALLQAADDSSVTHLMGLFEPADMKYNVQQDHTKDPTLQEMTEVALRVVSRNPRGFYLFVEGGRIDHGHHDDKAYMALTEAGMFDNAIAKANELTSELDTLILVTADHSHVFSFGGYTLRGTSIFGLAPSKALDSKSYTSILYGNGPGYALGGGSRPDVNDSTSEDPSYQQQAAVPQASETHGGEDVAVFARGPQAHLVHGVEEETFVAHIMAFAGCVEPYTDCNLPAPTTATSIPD
T2 sequence (P19111 20-506 limits assumed): as above
T3 sequence (P19111 20-506 limits assumed): as above
T3 sequence (P02701 25-152 partner): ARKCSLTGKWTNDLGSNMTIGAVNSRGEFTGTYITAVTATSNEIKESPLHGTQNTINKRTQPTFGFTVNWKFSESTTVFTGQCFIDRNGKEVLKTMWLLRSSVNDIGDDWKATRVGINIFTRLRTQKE

`COC12CC3CC(C1)C1(OOC1(OC)c1cccc(OP(=O)(O)O)c1)C(C3)C2` (single isomer, unassigned) [CH3 O-AMPPD-A] was tested, and the “HALF-TIME TO PLATEAU (min.) AL LOW ALK PHOS CONCENTRATION” value (“HALF-TIME TO PLATEAU” below) (alkaline phosphatase [1]) was 0.86 min.

For `COC1(c2cccc(OP(=O)(O)O)c2)OOC12C1CC3CC2CC(O)(C3)C1` (single isomer, unassigned) [HO-AMPPD], the chemiluminescent signal-to-noise level (alkaline phosphatase [2]; EMERALD 1 1 mg/ml, 5 min) was 307, the chemiluminescent signal-to-noise level (alkaline phosphatase [2]; EMERALD 1 1 mg/ml, 20 min) was 386 and the chemiluminescent signal-to-noise level (alkaline phosphatase [2]; EMERALD 2 1 mg/ml, 5 min) was 247. The chemiluminescent signal-to-noise level (alkaline phosphatase [2]; EMERALD 2 1 mg/ml, 20 min) was 299, the chemiluminescent signal-to-noise level (alkaline phosphatase [2]; SAPPHIRE 1 1 mg/ml, 5 min) was 229 and the chemiluminescent signal-to-noise level (alkaline phosphatase [2]; SAPPHIRE 1 1 mg/ml, 20 min) was 305. For the same molecule, the chemiluminescent signal-to-noise level (alkaline phosphatase [2]; SAPPHIRE 2 1 mg/ml, 5 min) was 466, the chemiluminescent signal-to-noise level (alkaline phosphatase [2]; SAPPHIRE 2 1 mg/ml, 20 min) was 643 and the chemiluminescent signal-to-noise level (alkaline phosphatase [2]; [8]) was 55. For the same molecule, the chemiluminescent signal-to-noise level (alkaline phosphatase [2]; enhancer NONE, 20 min) was 73, the “Detection limit for alkaline phosphatase” value (alkaline phosphatase [3]; ENHANCER 1, 5 MIN) was 3.0 femtomoles/liter and the “Detection limit for alkaline phosphatase” value (alkaline phosphatase [3]; ENHANCER 1, 20 MIN) was 0.8 femtomoles/liter. The “Detection limit for alkaline phosphatase” value (alkaline phosphatase [3]; ENHANCER 2, 5 MIN) was 1.0 femtomoles/liter and the “Detection limit for alkaline phosphatase” value (alkaline phosphatase [3]; ENHANCER 2, 20 MIN) was 0.3 femtomoles/liter.

With `COC1(c2cccc(OP(=O)(O)O)c2)OOC12C1CC3CC2CC(I)(C3)C1` (single isomer, unassigned) [ISPD-A] the “HALF-TIME TO PLATEAU” value (alkaline phosphatase [1]) was 0.64 min.

In the case of `COC1(c2cccc(OP(=O)(O)O)c2)OOC12C1CC3CC2CC(I)(C3)C1` (single isomer, unassigned) [ISPD-B], the “HALF-TIME TO PLATEAU” value (alkaline phosphatase [1]) is reported as 0.70 min.

`COC1(c2cccc(OP(=O)(O)O)c2)OOC12C1CC3CC2CC(OC(C)C)(C3)C1` (single isomer, unassigned) [i-PrO-AMPPD-A] was tested, and the “HALF-TIME TO PLATEAU” value (alkaline phosphatase [1]) was 0.93 min.

For `COC1(c2cccc(OP(=O)(O)O)c2)OOC12C1CC3CC2CC(OC(C)C)(C3)C1` (single isomer, unassigned) [i-PrO-AMPPD-B], the “HALF-TIME TO PLATEAU” value (alkaline phosphatase [1]) was 0.68 min.

With `COC1(c2cccc(OP(=O)(O)O)c2)OOC12C1CC3CC2CC(Br)(C3)C1` (centres unmarked) [Br-AMPPD, disodium 3-(4-methoxyspiro-[1,2-dioxetane-3,2'-(5'-bromo)tricyclo[3.3.1.1^3,7]decan]-4-yl) phenyl phosphate] the “Alkaline phosphatase detection limit (at 2× background)” value (from here on “Alkaline phosphatase detection limit”) (alkaline phosphatase [4]; SAPPHIRE II) was 0.00074 pM, the “Alkaline phosphatase detection limit” value (alkaline phosphatase [4]; SAPPHIRE) was 0.00021 pM and the chemiluminescent signal-to-noise level (alkaline phosphatase [2]; EMERALD 1 1 mg/ml, 5 min) was 149. For the same molecule, the chemiluminescent signal-to-noise level (alkaline phosphatase [2]; EMERALD 1 1 mg/ml, 20 min) was 915, the chemiluminescent signal-to-noise level (alkaline phosphatase [2]; EMERALD 2 1 mg/ml, 5 min) was 315 and the chemiluminescent signal-to-noise level (alkaline phosphatase [2]; EMERALD 2 1 mg/ml, 20 min) was 503. The chemiluminescent signal-to-noise level (alkaline phosphatase [2]; SAPPHIRE 1 1 mg/ml, 5 min) was 383, the chemiluminescent signal-to-noise level (alkaline phosphatase [2]; SAPPHIRE 1 1 mg/ml, 20 min) was 566 and the chemiluminescent signal-to-noise level (alkaline phosphatase [2]; SAPPHIRE 2 1 mg/ml, 5 min) was 688. For the same molecule, the chemiluminescent signal-to-noise level (alkaline phosphatase [2]; SAPPHIRE 2 1 mg/ml, 20 min) was 1019, the chemiluminescent signal-to-noise level (alkaline phosphatase [2]; [8]) was 77 and the chemiluminescent signal-to-noise level (alkaline phosphatase [2]; enhancer NONE, 20 min) was 92. The “Total Decay Time” value [5] was 40 min, the “Decay Rate I” value ([5]; RLU's per minute) was 1.2 RLU's per minute and the “Decay Rate II” value ([5]; RLU's per minute) was 0.8 RLU's per minute. The “Detection limit (in picograms DNA) 5. min. exp.” value ([6]; BDMQ blocking step) was 0.313 picograms DNA, the “Detection limit (in picograms DNA) 1 min. exp.” value ([6]; BDMQ blocking step) was 0.313 picograms DNA and the “Detection limit (in picograms DNA) 5. min. exp.” value ([6]; no BDMQ blocking step) was 1.250 picograms DNA. For the same molecule, the “Detection limit (in picograms DNA) 1 min. exp.” value ([6]; no BDMQ blocking step) was 2.500 picograms DNA, the “Detection limit for alkaline phosphatase” value (alkaline phosphatase [3]; ENHANCER 1, 5 MIN) was 2.6 femtomoles/liter and the “Detection limit for alkaline phosphatase” value (alkaline phosphatase [3]; ENHANCER 1, 20 MIN) was 0.5 femtomoles/liter. For the same molecule, the “Detection limit for alkaline phosphatase” value (alkaline phosphatase [3]; ENHANCER 2, 5 MIN) was 0.4 femtomoles/liter, the “Detection limit for alkaline phosphatase” value (alkaline phosphatase [3]; ENHANCER 2, 20 MIN) was 0.3 femtomoles/liter and the “Alkaline phosphatase detection limit” value (alkaline phosphatase [7]; SAPPHIRE II, 5 MINUTE INCUBATION) was 0.0004 pM. For the same molecule, the “Alkaline phosphatase detection limit” value (alkaline phosphatase [7]; SAPPHIRE II, 20 MINUTE INCUBATION) was 0.00039 pM, the “Alkaline phosphatase detection limit” value (alkaline phosphatase [7]; SAPPHIRE, 5 MINUTE INCUBATION) was 0.0027 pM and the “Alkaline phosphatase detection limit” value (alkaline phosphatase [7]; SAPPHIRE, 20 MINUTE INCUBATION) was 0.0004 pM.

With `COC1(c2cccc(OP(=O)(O)O)c2)OOC12C1CC3CC2CC(Br)(C3)C1` (centres unmarked) [BrSPD] the “HALF-TIME TO PLATEAU” value (alkaline phosphatase [1]) was 0.70 min.

For `COC1(c2cccc(OP(=O)(O)O)c2)OOC12C1CC3CC2CC(Cl)(C3)C1` (centres unmarked) [CSPD], the “HALF-TIME TO PLATEAU” value (alkaline phosphatase [1]) was 0.71 min.

With `COC1(c2cccc(OP(=O)(O)O)c2)OOC12C1CC3CC2CC(F)(C3)C1` (centres unmarked) [FSPD] the “HALF-TIME TO PLATEAU” value (alkaline phosphatase [1]) was 0.74 min.

`CCCCOC12CC3CC(C1)C1(OOC1(OC)c1cccc(OP(=O)(O)O)c1)C(C3)C2` (centres unmarked) [n-BuO-AMPPD] was tested, and the “HALF-TIME TO PLATEAU” value (alkaline phosphatase [1]) was 0.71 min.
